In US20240140970A1, “A […], AND PREPARATION METHOD AND USE THEREOF” (ASCENTAWITS PHARMACEUTICALS, LTD., priority 2021, published 2024):
Where “and” joins values, the source holds several entries; their conditions need not be identical. Identical values can stand only once.

Experiments:
[1] = Stability of AST-2660 and AST-2660-D8 methanol stock/working solutions (LC-MS/MS peak area, stored vs fresh solution); assay type: physicochemical
Procedure: The relevant parameters of the LC-MS/MS experimental method are provided.
AST-2660 (prepared by referring to Example 1 and selecting non-deuterated raw materials) standard stock solution (methanol solution with a concentration of 1.0 mg/ml): an appropriate amount of AST-2660 was taken, added with an appropriate amount of methanol, diluted and mixed thoroughly to obtain 1.0 mg/ml of solution.
A 100 μL standard stock solution of AST-2660 was taken, added with 9900 μL of methanol, diluted and mixed thoroughly to obtain 10.0 μg/ml of calibration standard working solution.
[…] A 20 μL of internal standard stock solution of AST-2660-D8 was taken, added with 9980 μL methanol, diluted and mixed thoroughly to obtain 100 ng/ml of internal standard working solution.
It can be seen from Table 10 that the accuracy of the stability of the AST-2660 working solution and the internal standard AST-2660-D8 working solution was within ±8.1%, and the precision was less than 5.5%. Stability analysis criteria: the difference between the storage stable solution and the freshly prepared solution must be within ±10.0%, and the CV of each replicate experiment must not be greater than 10.0%. Therefore, both AST-2660 and AST-2660-D8 (internal standard) working solutions had good stability and met the requirements under various storage conditions.

[2] = Stability of aqueous solution of AST-2660-D8-sodium salt by 31P-NMR with HMPA as internal standard; assay type: physicochemical
Procedure: This example is to study the stability of the sample solution by detecting the content of the aqueous solution of AST-2660-D8-sodium salt: ^31P-NMR was used for detection, and the content of the aqueous solution of AST-2660-D8-sodium salt was characterized by comparing the area ratio of ^31peak of HMPA as an internal standard to that of ^31P peak of AST-2660-D8 sodium salt within 48 hours, thereby determining whether the mass of the sample solution was reduced as a result of degradation.
^31P-NMR of the samples was run on an NMR instrument.
HMPA (21.8 mg, 0.1217 mmol) was dissolved in water (2.20 mL), wherein the total mass was […], and the concentration of HMPA was 5.72×10^−5 mmol/mg. A solution of AST-2660-D8-sodium salt (588 mg, about 0.5 mL) and a solution of HMPA (293 mg, 1.676×10^−2 mmol) were mixed together as samples for 31 P-NMR analysis under −20° C. storage conditions at different times. The ratio of integrated peak area of the nuclear magnetic peak (about 29.874 ppm) for the corresponding HMPA to that of the nuclear magnetic peak (about 24.491 ppm) for AST-2660-D8-sodium salt in the nuclear magnetic spectrum was calculated, and the integrated peak of the nuclear magnetic peak for HMPA was set as 1.
According to the same operation, a sample with another concentration was formulated for detection, and ^31P-NMR analysis was performed under −78° C. storage conditions at different times. […]

[3] = 100 ng/ml methanol solution, fresh stock solution, t = 0
[4] = 100 ng/ml methanol solution, working solution stored at −70° C., t = 26 days
[5] = 1 mg/ml methanol solution, fresh stock solution, t = 0
[6] = 1 mg/ml methanol solution, stock solution stored at −70° C., t = 26 days

[2H]C1([2H])N(P(=O)([O-])N2C([2H])([2H])C2([2H])[2H])C1([2H])[2H].[Na+] [AST-2660-D8 sodium salt]
RE (% difference, peak area stock vs fresh solution) ([1]; 100 ng/ml AST-2660-D8 methanol working solution, 26 days at −70° C.): RE: 0.9% | Peak area (AST-2660-D8), Mean value [1, 3]: 3282130 | Peak area (AST-2660-D8), single replicates [1, 3]: 3253860 and 3323720 and 3204960 and 3285390 and 3314390 and 3310460 | Deviation % over fresh stock solution [1, 4]: 0.9% | Peak area (AST-2660-D8), Mean value [1, 4]: 3311013 | Peak area (AST-2660-D8), single replicates [1, 4]: 3289570 and 3332520 and 3294750 and 3307750 and 3306110 and 3335380 | Peak area (AST-2660-D8), Mean value [1, 5]: 548278.5 | Peak area (AST-2660-D8), single replicates [1, 5]: 574450 and 589227 and 535059 and 530296 and 537317 and 523322 | Deviation % over fresh stock solution [1, 6]: −2.0% | Peak area (AST-2660-D8), Mean value [1, 6]: 537342.5 | Peak area (AST-2660-D8), single replicates [1, 6]: 539154 and 532283 and 520321 and 550350 and 532469 and 549478 | stability of methanol solution (in words) ([1]; stored for 26 days at −70° C.): strong stability | concentration of AST-2660-D8 sodium salt ([2]; aqueous solution after storage at −20° C. for 6 months): 1370 µg/mL | concentration of AST-2660-D8 sodium salt ([2]; aqueous solution after storage at −78° C. for 6 months): 1710 µg/mL | decrease of concentration ([2]; aqueous solution, 6 months of storage at −20° C.): 27.5% | decrease of concentration ([2]; aqueous solution, 6 months of storage at −78° C.): 9.5% | concentration of AST-2660-D8 sodium salt ([2]; aqueous solution, day 0): 1890 µg/mL | stability of solution (in words) ([2]; stored at −20 to −78° C. for 48 hours (2 days)): stable
